No end group written: not given here.
Assays:
[1] = target: T1, LCAT (purified from human plasma) (Homo sapiens, UniProt P04180); test: LCAT activation assay; assay type: biochemical; settings: LCAT activation as compared with native human ApoA-I (= 100%), equivalent masses
T1 construct: from tissue; host or cells: human plasma
T1 sequence (P04180 25-440): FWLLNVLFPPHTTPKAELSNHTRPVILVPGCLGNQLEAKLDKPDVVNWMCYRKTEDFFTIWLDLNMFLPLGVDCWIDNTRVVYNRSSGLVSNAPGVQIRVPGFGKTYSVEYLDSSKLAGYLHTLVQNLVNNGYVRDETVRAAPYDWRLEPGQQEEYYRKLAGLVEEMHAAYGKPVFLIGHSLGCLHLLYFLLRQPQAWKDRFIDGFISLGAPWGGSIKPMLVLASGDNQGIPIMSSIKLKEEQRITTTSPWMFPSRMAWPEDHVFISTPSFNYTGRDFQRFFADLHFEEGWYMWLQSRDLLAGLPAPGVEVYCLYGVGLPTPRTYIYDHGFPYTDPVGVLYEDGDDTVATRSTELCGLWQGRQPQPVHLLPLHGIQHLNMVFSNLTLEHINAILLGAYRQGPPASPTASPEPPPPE
Method in brief: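 Activity was expressed as percentage conversion of radiolabelled cholesterol to cholesteryl ester, normalised to native ApoA-I as 100%. LCAT purified from human plasma was added to peptide-preincubated EPC or POPC/cholesterol (20:1) small unilamellar vesicles at pH 7.4. Specific activity is the peptide concentration reaching the conversion plateau at a fixed timepoint.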

[2] = Circular dichroism helicity determination; assay type: physicochemical; settings: percent helicity; for He (%) TFE: 5 μM peptide, 90% vol TFE; for He (%) free: unbound peptide 5 μM in 5 mM phosphate buffer, pH 7.4, 37° C.; for He (%) mics: peptide-micelle complexes, Ri=100, 37° C.
Method in brief: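 Far-UV CD (190–260 nm) at 37° C on 5 μM peptide in 5 mM phosphate pH 7.4, free, with EPC:Chol 20:1 SUVs (Ri 30 or 50), lysophosphatidylcholine micelles (Ri 100) or 90% TFE. Spectra converted to molar ellipticity per residue; helicity from 222 nm ellipticity or CONTIN fitting to reference spectra, ±5%.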

| Sequence | ACTIVITY (%) LCAT [1] | He (%) TFE ([2]; 37° C.) | He (%) free [2] | He (%) SUVs ([2]; peptide-SUV complexes (20:1 EPC:Chol., Ri=30 and Ri=50), 37° C.) | He (%) mics [2] |
| --- | --- | --- | --- | --- | --- |
| PVLELFENLLERLLDALQKKLK [peptide 146] | 86% | 95% | 97% | 100% | 100% |
| PVLELFENLWERLLDALQKKLK [peptide 149] | 63% | 47% | 28% |  | 54% |
